Assay results reported in article PMC9328652, “A novel class of fast‐acting antimalarial agents: Substituted 15‐membered azalides” (British Journal of Pharmacology, 2020).
In brackets after ≈: the same amount, converted by molar mass. Like-named read-outs stand apart in the source and are kept apart here.

Legend:
[1] = system: Plasmodium falciparum K1 (CQ,PY); assay: [3H]hypoxanthine incorporation antimalarial assay, strain K1; assay type: cell-based; conditions: K1, 72 h, read-out: IC50 K1 (CQ,PY)
Protocol: (§1) The activity of the test compounds against P. falciparum in vitro was determined using the tritiated hypoxanthine incorporation assay of Desjardins et al. and additionally modified by Milhous and Chulay (Chulay, Haynes, & Diggs, [1983]; Milhous, Weatherly, Bowdre, & Desjardins, [1985]).
(§2) Compounds were dissolved in DMSO and subsequently diluted in the culture medium (RPMI 1640) supplemented with 10% v/v human plasma. Serial 1:2 drug dilutions were prepared in triplicate in microtitre plates. Culture medium supplemented with 10% v/v human plasma and type A Rhesus positive human erythrocytes infected with P. falciparum strains was added to yield a haematocrit of 3% and a parasitaemia of 0.25–0.55%. The plates were incubated at 37°C in a modular incubator flushed with a mixture of 5% oxygen, 3% carbon dioxide, and 92% nitrogen for 48 h, and then [^3H]hypoxanthine was added to give a final concentration of 12.5–16 μCi·ml^−1. After incubation for additional 24 h, particulate matter was harvested on fibreglass strips and hypoxanthine incorporation determined by scintillation spectrophotometry. […] Delayed death experiments were performed by this standard method but extending the incubation time with the drug up to 96 h.

[2] = system: Plasmodium falciparum W2 (chloroquine/pyrimethamine resistant); set-up: method as in Pesic et al. ([2012]); conditions: 72 h of incubation; ref Pesic et al. ([2012]); cited from earlier work
[3] = system: Plasmodium falciparum T9/94 (CQ); assay: [3H]hypoxanthine incorporation antimalarial assay, strain T9/94; assay type: cell-based; conditions: 72 h, read-out: IC50 T9/94 (CQ)
Protocol: as §1, §2

[4] = system: Plasmodium falciparum 3D7A (sensitive); set-up: method as in Pesic et al. ([2012]); conditions: 72 h of incubation; ref Pesic et al. ([2012]); cited from earlier work
[5] = system: P. falciparum 3D7^0087/N9; assay: P. falciparum murine model (humanized mice), 4-day test; assay type: in vivo, Plasmodium falciparum
Protocol: The in vivo efficacy evaluation of the compounds was performed using a P. falciparum murine model of malaria in non‐myelodepleted NOD. Cg‐Prkdc^ scid –β2m^ tm1Unc ‐scid IL2R_null (NODscidβ2m^−/−) mice engrafted with human erythrocytes as described previously (Angulo‐Barturen et al., [2008]; Jimenez‐Diaz et al., [2005]; Jimenez‐Diaz et al., [2009]; Jimenez‐Diaz et al., [2009]), as this model enables testing of P. falciparum strains with high infectious burden. Briefly, groups of three mice engrafted with human erythrocytes were infected with 20 × 10^6 of P. falciparum 3D7^0087/N9‐infected erythrocytes/mouse by intravenous route. The mice were randomly assigned to their corresponding experimental groups. The treatment of oral doses QD for 4 days started at day 3 after infection. Parasitaemia was measured at days 3, 5, and 7 post‐infection. The therapeutic efficacy was expressed as the dose (mg·kg^−1) that reduced parasitaemia in peripheral blood of mice at day 7 after infection by 90% (ED90) with respect to vehicle‐treated mice. Chloroquine was included as quality control for each in vivo assay. Efficacy is expressed as the daily dose (ED90), or equivalent exposure (AUCED90), administered to mice necessary to reduce parasitaemia at day 7 by 90% with respect to vehicle‐treated mice. The ED90 is estimated by fitting a four‐decade logistic equation for the log10 [parasitaemia at day 7] versus the log10 [dose] using GraphPad Prism 5.01 (GraphPad Software Inc., San Diego, CA).

[6] = system: Plasmodium falciparum Dd2 (CQ,Q,PY,S); assay: microbe, parasite or virus in culture; assay type: cell-based; conditions: for IC50: Plasmodium falciparum
Protocol: as §1, §2

[7] = system: Plasmodium falciparum V1/S (CQ,PY); assay: microbe, parasite or virus in culture; assay type: cell-based; conditions: 72 h, read-out: IC50 V1/S (CQ,PY)
Protocol: as §1, §2

haem polymerization = assay: Cell-free haem polymerization assay; assay type: biochemical; conditions: for IC50: cell‐free, N = 2
Protocol: Experiments were performed according to Tripathi, Khan, Walker, and […] ([2004]). Briefly, a solution of sodium acetate containing mono-oleoyl glycol and the corresponding inhibitor at different concentrations is placed in 1.5-ml reaction tubes. […] Multiple washing steps with Tris/SDS and bicarbonate, to remove monomeric haem and haem aggregates, allow quantification of de novo formed β-haematin.

[8] = Pharmacokinetics in P. falciparum infected and uninfected humanized mice; conditions: oral 10 mg·kg^−1, mean (SD); for Cmax / Tmax: NODscidβ2m^−/−, mouse, in vivo, po, 10 mg/kg; for Cmax: C max, blood; for Tmax: t max
Protocol: For pharmacokinetic (PK) studies in mice, animals were dosed either by intravenous (i.v.) or oral (p.o.) route.
(§3) For studies performed in Swiss albino CD‐1 mice (Harlan Laboratories, Spain), in order to obtain simultaneous blood and plasma profiles and blood‐to‐plasma (B/P) ratio, PK was performed using terminal sampling of N = 3 animals per time point and data evaluated using composite analysis. For studies performed in P. falciparum infected and non‐infected NODscidβ2m^−/− mice (Charles River Laboratories, France), only whole blood was obtained by serial sampling of N = 3 animals using tail puncture.
(§4) For analysis of whole blood samples, 25 μl of fresh blood were mixed with 25 μl of saponin solution (0.1% in water) and immediately frozen on dry ice. Plasma was obtained by centrifugation of fresh blood at 2,500 g for 10 min. Both blood and plasma samples were stored frozen at −80°C until analysis.
(§5) Diluted blood and plasma samples were processed under standard liquid–liquid extraction procedures using acetonitrile containing internal standard (clarithromycin, 100 ng·ml^−1) and analysed by LC–MS/MS in positive ion mode with electrospray. Samples were assayed for parent compound using a Sciex API 4000 and Sciex API‐2000 Triple Quadrupole Mass Spectrometer (Sciex, Division of MDS Inc., Toronto, Canada), against a series of matrix matched calibration curve standards, using multiple reaction monitoring (MRM) at the specific transitions for each compound. Non‐compartmental analysis was performed using WinNonlin, version 4.1 (Pharsight, Mountain View, CA), and the main pharmacokinetic parameters were estimated.

[9] = system: Plasmodium falciparum FCR3 (CQ,AT); assay: [3H]hypoxanthine incorporation antimalarial assay, strain FCR3; assay type: cell-based; conditions: FCR3, 72 h, read-out: IC50 FCR3 (CQ,AT)
Protocol: as §1, §2

[10] = system: Plasmodium falciparum 7G8 (CQ, PY); assay: [3H]hypoxanthine incorporation antimalarial assay, strain 7G8; assay type: cell-based; conditions: 7G8, 72 h, read-out: IC50 7G8 (CQ, PY)
Protocol: as §1, §2

[11] = Pharmacokinetic studies in CD-1 mice
Protocol: For pharmacokinetic (PK) studies in mice, animals were dosed either by intravenous (i.v.) or oral (p.o.) route. For i.v. administration, the dosing volume was 10 ml·kg^−1 for a total dose of 12.5 mg·kg^−1, and for p.o. administration, the dosing volume was 20 ml·kg^−1 for a total dose of 12.5 mg·kg^−1. Dosing solutions were prepared in 100% saline ([…]) both for i.v. and p.o. administration for all compounds with the exception of compound 4 for which dosing solutions were prepared in PBS with 5% Cremophor‐EL (Fluka). Following i.v. dosing, blood samples were collected at 5 and 15 min, 1, 3, 6, 8, 24, and 48 h post‐dose. Following oral dosing, blood samples were collected at 15 and 30 min, 1, 2, 4, 6, 8, 24, and 48 h post‐dose.
as §3, §4, §5

M. catarrhalis ATCC23246 = assay: Antibacterial screen, broth microdilution; assay type: cell-based, Moraxella catarrhalis
Protocol: (§6) Antibacterial activity of compounds was determined by a standard broth microdilution method (Clinical Laboratory Standard Institute CLSI, [2009]), except that for Streptococcus strains lysed blood was substituted with 5% horse serum in the testing medium. […] The activities are expressed as minimum inhibitory concentrations (MICs) in units of μg·ml^−1. […] The organisms tested represented macrolide sensitive Gram‐positive pathogens that are mainly targeted by macrolide antibiotics. Tested streptococci were clinical isolates Streptococcus pneumoniae SP030 and Streptococcus pyogenes 3565 from internal strain collection, and other strains were obtained from ATCC bioresource centre, Staphylococcus aureus ATCC13709, Haemophilus influenzae ATCC49247, and Moraxella catarrhalis ATCC23246. Double dilutions of tested compounds were prepared using TECAN Genesis 150. Bacteria were grown on appropriate agar plates (Becton Dickinson, USA)—Columbia agar with 5% sheep blood for streptococci and M. catarrhalis, Mueller‐Hinton chocolate agar for H. influenzae , and Mueller‐Hinton agar for staphylococci.

HepG2 cells = assay: Cytotoxicity assay (MTS); assay type: cell-based, human; conditions: 24 h, N = 2
Protocol: The detailed protocol for cytotoxicity measurement is described elsewhere (Verbanac et al., [2005]). In brief, HepG2 cells were maintained in complete RPMI 1640 medium supplemented with 10% FBS at 37°C in a 5% CO2 atmosphere. Each culture in the 96‐well plates contained 50,000 cells which were exposed to serial dilutions (1:2) of compounds initially dissolved in DMSO and subsequently diluted in supplemented RPMI 1640 medium. Compounds were tested in duplicates, and plates were incubated for 24 h at 37°C in 5% CO2. The cytotoxicity assay was performed using the MTS CellTiter 96 AQueous One Solution Cell Proliferation Assay (Promega, USA). After the addition of MTS reagent and 2 h of incubation at 37°C in 5% CO2, the absorbance at 490 nm was recorded and Tox50 determined based on the obtained response curves.

[12] = system: Plasmodium falciparum Dd2(AZ^R); assay: [3H]hypoxanthine incorporation antimalarial assay, azithromycin-resistant mutant Dd2(AZ^R); assay type: cell-based
Protocol: as §1, §2

[13] = system: Plasmodium falciparum W2 (chloroquine/pyrimethamine resistant); assay: [3H]hypoxanthine incorporation antimalarial assay, strain W2; assay type: cell-based; conditions: W2, 72 h, read-out: Plasmodium falciparum IC50 W2
Protocol: as §1, §2

[14] = system: Plasmodium falciparum 3D7A (sensitive); assay: [3H]hypoxanthine incorporation antimalarial assay, strain 3D7A; assay type: cell-based; conditions: 72 h of incubation, N = 3
Protocol: as §1, §2

H. influenzae ATCC49247 = assay: Antibacterial screen, broth microdilution; assay type: cell-based; conditions: Haemophilus influenzae
Protocol: as §6

S. aureus ATCC13709 = assay: Antibacterial screen, broth microdilution; assay type: cell-based; conditions: Staphylococcus aureus
Protocol: as §6

S. pneumoniae SP030 = assay: Antibacterial screen, broth microdilution; assay type: cell-based; conditions: Streptococcus pneumoniae
Protocol: as §6

S. pyogenes 3565 = assay: Antibacterial screen, broth microdilution; assay type: cell-based; conditions: Streptococcus pyogenes
Protocol: as §6

[15] = Swiss albino CD-1, mouse, whole blood, iv, 12.5 mg/kg

## CCN(CC)CCCC(C)Nc1ccnc2cc(Cl)ccc12 (stereo not drawn) [Chloroquine, reference compound]
[1]
  IC50: 313 nM
[2]
  IC50: 431 nM
[3]
  IC50: 178 nM
[4]
  IC50: 16 nM
[5]; 100 mg·kg^−1, groups of three mice
  mice with no detectable parasitaemia at day 35: all mice
[5]; humanized mice, oral
  AUCED90 (daily molar exposure for 90% parasitaemia reduction): 3.1 μM·h^−1·day^−1
[6]; DD2, 72 h, read-out: IC50 Dd2 (CQ,Q,PY,S)
  IC50: 356 nM
[7]
  IC50: 388 nM
Haem polymerization
  IC50: 3800 to 10600 nM
[8]; infected (I) humanized mice
  Cmax: 210 ng/mL
  Tmax: 2.33 h
  DNAUC(0–24): 200 (13) ng*h·ml^−1·mg^−1·kg^−1
[8]; uninfected (U) humanized mice
  Cmax: 72.3 ng/mL
  Tmax: 1.92 h
  DNAUC(0–24): 63 (23) ng*h·ml^−1·mg^−1·kg^−1
[9]
  IC50: 138 nM
[10]
  IC50: 194 nM

## CC[C@H]1OC(=O)[C@H](C)[C@@H](O[C@H]2C[C@@](C)(OC)[C@@H](O)[C@H](C)O2)[C@H](C)[C@@H](O[C@@H]2O[C@H](C)C[C@H](N(C)C(C)=O)[C@H]2O)[C@](C)(O)C[C@@H](C)CN(CCCNC(=O)Nc2ccc3ccccc3c2)[C@H](C)[C@@H](O)[C@]1(C)O [Compound 4]
[11]; CD‐1 mice, after oral administration
  B/P (ratio of AUC0−t in whole blood and plasma): 0.4
[11]; CD‐1 mice, blood, oral gavage 12.5 mg·kg^−1
  DNAUCPO (AUC0−t divided by the dose): 0.3 ng·kg·h/mL/mg
[11]; Swiss albino CD-1, mouse, whole blood, intravenous, 12.5 mg/kg
  half-life: 3.76 h
[11]; [15]
  Vd: 0.708 L/kg
  clearance: 14.8 mL/min/kg
[11]; Swiss albino CD-1, mouse, whole blood, po, 12.5 mg/kg, F, CD‐1 mice, 12.5 mg·kg^−1 i.v. and p.o.
  bioavailability: < 1%
M. catarrhalis ATCC23246
  activity against M. catarrhalis (in words): only minor activity
M. catarrhalis ATCC23246; Moraxella catarrhalis, ATCC23246, broth microdilution
  MIC: 32 µg/mL (≈ 32.3 µM)
HepG2 cells
  Tox50 HepG2: 38 µM
[12]; DD2, 48 h, read-out: IC50 Dd2(AZ^R) 48 h
  IC50: 68 nM
[12]; DD2, 96 h, read-out: IC50 Dd2(AZ^R) 96 h
  IC50: 53 nM
[13]
  IC50: 19 nM
[14]
  IC50: 13 nM
[6]; Dd2 and Dd2(AZ^R), 48 versus 96 h
  Delayed death phenotype: No
[6]; DD2, 48 h, read-out: IC50 Dd2 48 h
  IC50: 65 nM
[6]; DD2, 96 h, read-out: IC50 Dd2 96 h
  IC50: 70 nM
H. influenzae ATCC49247
  MIC: > 64 µg/mL
S. aureus ATCC13709
  MIC: > 64 µg/mL
S. pneumoniae SP030
  MIC: > 64 µg/mL
S. pyogenes 3565
  MIC: > 64 µg/mL
Haem polymerization
  IC50: 46300 nM
Haem polymerization; compared with compounds 1, 2, 3 and chloroquine
  weaker potency in haem polymerization: ~ 10 fold
